One data set concerns the target Mtb FtsZ (Mycobacterium tuberculosis, UniProt P9WN95). In words: biochemical. Type of data set: biochemical.
The test system of a further data set is Mtb H37Ra (ATCC 25177). In words: In vitro screen versus Mtb H37Ra (Alamar blue microdilution broth assay, MIC99). Type of data set: cell-based, M. tuberculosis. The following applies: Mycobacterium tuberculosis. On the procedure: The initial screening set and selected other compounds were tested for their inhibitory activity against Mtb H37Ra (ATCC 25177) and MAC NJ211 strains. Screening was performed at 1.28 and 12.8 μg/mL in Middlebrook 7H9 broth supplemented with 0.2% glycerol and ADC enrichment using a colorimetric (Alamar blue) microdilution broth assay by reported methods.[15]
(In general: The colour change of resazurin is a common sign of viable cells or microbes.)

Another data set deals with MAC NJ211. In words: In vitro screen versus MAC NJ211 (Alamar blue microdilution broth assay, MIC99). Type of data set: cell-based. The following applies: for MIC99: read-out: MAC NJ211 MIC99.
Data set [1] deals with Mtb H37Rv. In words: In vitro qHTS assay against Mtb H37Rv (IC90). Type of data set: cell-based, M. tuberculosis. The following applies: Mycobacterium tuberculosis, H37RV; for IC90: concentration that inhibits bacterial growth by 90%, read-out: Mtb H37Rv IC90.
For data set [2], the system named is M. tuberculosis 41 (Mtb 41) FtsZ reporter strain. Type of data set: cell-based.
In a further data set the test system is tubulin. In words: Tubulin polymerization assay. Type of data set: biochemical, human. The following applies: for effect on human tubulin: at 100 μM; for IC50: mean ± standard deviation, at least three times per assay, NA = not active up to 100 μM.
For data set [3] the following is noted: cited from earlier work.
In data set [4] the test system is Mtb H37Rv. Put plainly: TAACF Alamar blue assay against Mtb H37Rv (IC90). It counts as cell-based, M. tuberculosis. The following applies: Mycobacterium tuberculosis.
A short description of data set [5]: Acute toxicity mouse model. Type of data set: in vivo, mice. The following applies: single dose of 300 mg/kg.
The next data set in a line: in vitro. The following applies: African green monkey.
A short description of data set [6]: Rapid PK mouse model (bioavailability). The following applies: mice, oral gavage, 300 mg/kg.
Data set [7] in a line: Cytotoxicity (CC50) in Vero cells, TAACF. The following applies: African green monkey.
Another data set has as its system Vero cells. In words: Cytotoxicity (CC50) in Vero cells, TAACF. The following applies: CC50 in Vero cells to IC90 against Mtb H37Rv.
Setting [8] is: mean ± standard deviation, at least three times per assay, NA = not active up to 100 μM, read-out: Mtb FtsZ Polymerization IC50.
The mark [9] stands for this setting: lowest drug concentration that completely inhibited growth, read-out: Mtb H37Ra MIC99.
Setting [10] is: same MIC99 given in μM, read-out: Mtb H37Ra MIC99 (concentration in μM in parentheses).
[11] abbreviates: lowest drug concentration that completely inhibited growth.

Values after ≈ are worked out from the molar mass of the structure shown. Where two headings read alike, the source gives them in different places.

Chain of Mtb FtsZ (P9WN95 whole entry): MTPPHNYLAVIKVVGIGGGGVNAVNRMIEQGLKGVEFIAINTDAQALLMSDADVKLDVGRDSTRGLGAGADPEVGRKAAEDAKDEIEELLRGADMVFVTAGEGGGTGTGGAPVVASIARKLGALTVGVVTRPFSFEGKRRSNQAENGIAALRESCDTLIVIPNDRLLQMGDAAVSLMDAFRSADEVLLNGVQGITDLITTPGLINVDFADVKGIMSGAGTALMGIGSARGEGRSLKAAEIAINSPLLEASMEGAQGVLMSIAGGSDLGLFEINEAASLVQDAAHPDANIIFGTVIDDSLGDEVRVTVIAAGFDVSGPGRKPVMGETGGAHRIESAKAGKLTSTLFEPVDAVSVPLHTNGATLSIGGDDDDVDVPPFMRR

A word on the IC50: it is the point on the concentration scale where inhibition reaches its midpoint. In general, inhibition refers to the change of the read-out against control, counted positive when it falls. `COc1cc(/C=C2\C=C(CC(=O)NCCN(C)C)c3cc(F)ccc32)cc(OC)c1OC` [Compound 62, (E)-N-(2-(dimethylamino)ethyl)-2-(5-fluoro-1-(3,4,5-trimethoxybenzylidene)-1H-inden-3-yl)acetamide]: the IC50 at Mtb FtsZ (setting [8]) amounted to 43.3 ± 9.8 µM. Besides, the MIC99 in the data set on Mtb H37Ra (ATCC 25177) (setting [9]) is 32 µg/mL; in the data set with Mtb H37Ra (ATCC 25177) (setting [10]) it was 72.5 µM; in the data set with MAC NJ211 (setting [11]) it was more than 64 µg/mL. In the data set on Mtb H37Rv [1] (at 50 μM), this compound returned an inhibition at 50 µM of 82%. Moreover, the IC90 in the data set on Mtb H37Rv [1] is more than 100 µM. Besides, the “FtsZ ring assembly in Mtb 41” value in data set [2] is listed as “inhibit FtsZ ring assembly”. Besides, the “growth of Mtb 41” value in data set [2] was “significant growth inhibition”.

With `CSc1ccc(/C=C2/C(C)=C(CC(=O)NCCN(C)C)c3cc(F)ccc32)cc1` [Compound 18, (Z)-N-(2-(dimethylamino)ethyl)-2-(5-fluoro-2-methyl-1-(4-(methylthio)benzylidene)-1H-inden-3-yl)acetamide], at Mtb FtsZ (setting [8]), the IC50 turned out to be 39.4 ± 4.9 µM. Further, the “effect on human tubulin” value in the data set with tubulin is on record as “no effect”; in the data set with tubulin (listed as SSA) it was “no inhibition”. In addition, the MIC99 with Mtb H37Ra (ATCC 25177) (setting [9]) came out at 8 µg/mL; with Mtb H37Ra (ATCC 25177) (setting [10]) it was 19.5 µM; in the data set on MAC NJ211 (setting [11]), 16 µg/mL (≈ 39 µM). Further, in the data set on Mtb H37Rv [1], the IC90 stood at 7.29 ± 0.23 µM. Further, the “tolerated dose in mice” value in data set [3] (over 17 days) is listed as “up to 300 mg/kg”.

Take `C[n+]1cc2c3c(ccc2c2ccc4cc5c(cc4c21)OCO5)OCO3` [Compound 10, Sanguinarine Cl‾ • H2O]: the concentration for half-maximal inhibition (IC50) turned out to be 23 ± 4 µM against Mtb FtsZ and 30 ± 7 µM with tubulin. Moreover, the MIC99 in the data set on Mtb H37Ra (ATCC 25177) (setting [9]) is 64 µg/mL; in the data set on Mtb H37Ra (ATCC 25177) (setting [10]), 193 µM; in the data set with MAC NJ211 (setting [11]), more than 64 µg/mL.

As to `CSc1ccc(/C=C2/C(C)=C(CC(=O)O)c3cc(F)ccc32)cc1` [Sulindac sulfide, reference compound], in [3] (over 20 days), the “tolerated dose in mice” value is on record as “up to 50 mg/kg”.

Broadly, the melting point is the temperature of the solid-liquid transition. `CSc1ccc(/C=C2/C(C)=C(CC(=O)NCCN3CCCCC3)c3cc(F)ccc32)cc1` [Compound 24, (Z)-2-(5-Fluoro-2-methyl-1-(4-(methylthio)benzylidene)-1H-inden-3-yl)-N-(2-(piperidin-1-yl)ethyl)acetamide] registered a melting point of 130 to 133 °C. Moreover, the half-maximal inhibitory concentration (IC50) on Mtb FtsZ (setting [8]) turned out to be 26.5 ± 4.8 µM. In the data set with tubulin, the half-inhibitory concentration (IC50) is more than 100 µM. The IC90 in the data set on Mtb H37Rv [1] worked out at 1.41 ± 0.03 µM.

In general, MIC refers to the smallest concentration in the dilution series that meets the test's criterion for growth inhibition. Consider `CC[n+]1c(/C=C/N(C)c2ccccc2)n(-c2ccccc2)c2ccc(-c3nc4ccccc4s3)cc21` [Compound 8, Zantrin Z2], for which the half-maximal inhibitory concentration (IC50) was 3.5 ± 0.3 µM on Mtb FtsZ (setting [8]) and more than 100 µM in the data set on tubulin. Besides, the MIC in the data set with Mtb H37Ra (ATCC 25177) (setting [11]) and against MAC NJ211 (setting [11]) was 1 µg/mL throughout. The IC90 amounted to 1.56 µg/mL in the data set on Mtb H37Rv [4] (read-out: Mtb H37Rv IC90) and 3.2 µM in the data set with Mtb H37Rv [4] (read-out: Mtb H37Rv IC90 (concentration in µM in parentheses)). Further, in data set [5], the “ill effects to the mice” value is on record as “no ill effects”. Moreover, the CC50 in the data set “in vitro” was 1.7 µg/mL; in data set [7] it was 3.49 µM. Further, the Bioavailability result in data set [6] is “no bioavailability and None”. The “Selectivity Index (CC50/IC90)” value in the data set on Vero cells turned out to be 1.09.

Turning to `C=CCOc1c(Br)cc(S(=O)(=O)c2cc(Br)c(O)c(Br)c2)cc1Br` [Compound 7, Zantrin Z4], the IC50 in the data set on tubulin turned out to be 77 ± 3 µM. The MIC99 with Mtb H37Ra (ATCC 25177) (setting [9]) is 64 µg/mL; in the data set with MAC NJ211 it was more than 64 µg/mL.

Take `COc1cc(/C=C2\C=C(CC(=O)NCCN3CCCC3)c3cc(F)ccc32)cc(OC)c1OC` [Compound 63, (E)-2-(5-fluoro-1-(3,4,5-trimethoxybenzylidene)-1H-inden-3-yl)-N-(2-(pyrrolidin-1-yl)ethyl)acetamide]: the IC50 at Mtb FtsZ (setting [8]) came to 37.6 ± 5.7 µM. Besides, the MIC99 in the data set on Mtb H37Ra (ATCC 25177) (setting [9]) is 32 µg/mL; in the data set with Mtb H37Ra (ATCC 25177) (setting [10]), 68.5 µM; in the data set with MAC NJ211 (setting [11]), more than 64 µg/mL. Moreover, the IC90 in the data set on Mtb H37Rv [1] worked out at 25.5 ± 0.33 µM. Also, the “FtsZ ring assembly in Mtb 41” value in data set [2] was “inhibit FtsZ ring assembly”. In data set [2], the “growth of Mtb 41” value was “significant growth inhibition”. The “bacterial cell length of Mtb 41” value in data set [2] (75 μM, brightfield microscopy) is “clear increase in bacterial cell length”.
